According to patent US7696243B2, “Pyrrolidin-2-one derivatives for use as DP1 receptor agonists” (Merck Serono, S.A., priority 2004, dated 2010):
“Also recorded” adds a separate entry of the source.

Legend:
[1] = biological target: T1, h-DP1 (Homo sapiens, UniProt Q13258); experiment: DP1 receptor binding assay (SPA, receptor membranes)
T1 construct: expressed in transfected cells; host or cells: HEK293-EBNA
T1 sequence (Q13258 1-359): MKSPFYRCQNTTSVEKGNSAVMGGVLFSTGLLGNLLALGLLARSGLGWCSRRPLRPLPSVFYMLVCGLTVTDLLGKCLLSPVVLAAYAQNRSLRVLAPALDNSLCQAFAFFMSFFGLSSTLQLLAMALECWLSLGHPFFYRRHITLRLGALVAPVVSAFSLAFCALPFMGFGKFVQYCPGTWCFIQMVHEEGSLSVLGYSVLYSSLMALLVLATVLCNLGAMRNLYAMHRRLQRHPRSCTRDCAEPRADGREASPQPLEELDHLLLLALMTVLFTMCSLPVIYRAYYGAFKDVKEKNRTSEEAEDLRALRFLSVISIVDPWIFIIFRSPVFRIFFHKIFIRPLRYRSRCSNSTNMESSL
Description: (§1) HEK 293(ebna) cells or other cells stably transfected with the appropriate receptor are maintained in culture, harvested and membranes are prepared by differential centrifugation, following lysis of the cells in the presence of protease inhibitors, for use in receptor binding assays.
(§2) Prostanoid receptor binding assays are performed in 10 mM MES/KOH (pH 6.0) (EPs, FP and TP) or 10 mM HEPES/KOH (pH 7.4) (DP and IP), containing 1 mM EDTA, 10 mM divalent cation and the appropriate radioligand for the given receptor. The reaction is initiated by addition of membrane protein. Typically, the ligands are added in a solvent such as dimethylsulfoxide which is kept constant at 1% (v/v) in all incubations. Non-specific binding is determined in the presence of 1 μM of the corresponding non-radioactive prostanoid. Incubations are conducted for 60 min at room temperature or 30° C. and terminated by rapid filtration. Specific binding is calculated by subtracting non-specific binding from total binding. The residual specific binding at each ligand concentration is calculated and expressed as a function of ligand concentration in order to construct sigmoidal concentration-response curves for determination of ligand affinity.
(§3) In another protocol, compounds of the invention are tested in DP1 receptor binding assay of the following protocol. A mixture containing 20 μg of DP1 receptor membranes, 0.5 mg of wheat germ agglutinin coated PVT-SPA beads, plus or minus a test compound of the invention (25 μl per well) or 10 μM of cold PGE2 at 1% DMSO and 20 nM radiolabeled ligand for the receptor (e.g., tritiated-PGE2) in assay buffer containing 25 mM MES, 10 mM MgCl2, 1 mM EDTA, pH 6.0 are incubated in Corning 3600 plates on a plate shaker for 2 hrs at room temperature. Binding of the radiolabeled ligand binding is evaluated by counting the plates on the top count using the 3H SPA dpm2 program. % Binding and Ki value for inhibitors are calculated based on the one site competition parameter using the Graphpad® prism program. Such an assay may be modified by employing the different receptors and their specific ligands to assess the activity of the compounds of the present invention against such receptors. Using such an assay, the DP1 Ki values for a number of exemplary compounds of the present invention were calculated and are shown in Table 1.

[2] = biological target: T1, h-DP1; experiment: Whole cell second messenger (cAMP) assay on cells expressing DP1; assay type: cell-based
Description: Whole cell second messenger assays measuring stimulation (EP2, EP4, DP1, DP2 and IP in HEK 293(ebna) cells) or inhibition (EP3 in human erythroleukemia (HEL) cells) of intracellular cAMP accumulation or mobilization of intracellular calcium (EP1, FP and TP in HEK 293(ebna) cells stably transfected with apo-aequorin) are performed to determine whether receptor ligands are agonists or antagonists. For cAMP assays, cells are harvested and resuspended in HBSS containing 25 mM HEPES, pH 7.4. Incubations contain 100 μM RO-20174 (phosphodiesterase type IV inhibitor, available from Biomol) and, in the case of the EP3 inhibition assay only, 15 μM forskolin to stimulate cAMP production.
Samples are incubated at 37° C. for 10 min, the reaction is terminated and cAMP levels are then measured. For calcium mobilization assays, cells are charged with the co-factors reduced glutathione and coelenterazine, harvested and resuspended in Ham's F12 medium. Calcium mobilization is measured by monitoring luminescence provoked by calcium binding to the intracellular photoprotein aequorin. Ligands are added in dimethylsulfoxide which is kept constant at 1% (v/v) in all incubations.
For agonists, second messenger responses are expressed as a function of ligand concentration and both EC50 values and the maximum response as compared to a prostanoid standard are calculated. For antagonists, the ability of a ligand to inhibit an agonist response is determined by Schild analysis and both KB and slope values are calculated.
In another exemplary protocol, HEK293-EBNA cells transfected with the appropriate receptors are seeded in 96 well opaque plate (Costar #3917) at 4×10^4 cells per well in 100 μl of culture medium (D-MEM/F12 supplemented with 10% FBS, […] L-glutamine, and 250 μg/ml of hygromycin; all from GibcoBRL) and incubated at 37° C. After overnight incubation, the medium was removed from each well and replaced with 45 μl of assay medium consisted of phenol red free D-MEM/F-12, 0.1% BSA (GibcoBRL) and 0.1 mM 3 isobutyl-1-methyl-xanthine (Sigma). After 15 minutes of incubation at 37° C., 16-16-dimethyl PGE-2 or compounds at desired concentrations in 20 μl of assay medium were added to cells and further incubated at 37° C. for 1 hour. Total cAMP (intra- and extracellular) was measured by using a cAMP-screen ELISA System (Tropix #CS1000).

[3] = biological target: T2, h-DP2 (Homo sapiens, UniProt Q9Y5Y4); experiment: Prostanoid receptor binding assay, DP2; conditions: n = 2
T2 construct: expressed in transfected cells; host or cells: HEK 293(ebna) cells or other stably transfected cells; membranes
T2 sequence (Q9Y5Y4 1-395): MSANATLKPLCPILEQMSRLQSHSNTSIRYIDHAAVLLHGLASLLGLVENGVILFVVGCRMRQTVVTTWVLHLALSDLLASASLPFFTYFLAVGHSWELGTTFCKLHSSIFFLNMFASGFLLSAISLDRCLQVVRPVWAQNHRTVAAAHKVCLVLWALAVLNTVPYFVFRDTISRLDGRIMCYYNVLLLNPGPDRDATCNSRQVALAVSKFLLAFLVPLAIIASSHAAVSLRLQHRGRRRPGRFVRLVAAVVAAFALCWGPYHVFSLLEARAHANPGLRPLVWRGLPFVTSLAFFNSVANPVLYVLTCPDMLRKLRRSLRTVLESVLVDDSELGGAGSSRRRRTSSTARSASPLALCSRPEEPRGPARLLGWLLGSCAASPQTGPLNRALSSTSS
Description: as §1, §2, §3

[4] = tested on: human penile cavernosal tissue strips; experiment: Organ bath: relaxation of human penile cavernosal tissue strips after contraction with phenylephrine
Description: Human tissue procurement. Cavernosal tissue is obtained from patients undergoing penile prosthesis implantation surgery for treatment of erectile dysfunction. In the operating room, biopsies of the corpora cavernosa are immediately placed in chilled (4° C.) physiologic salt solution and transported to the laboratory. Tissue strips, measuring approximately 3 mm×3 mm×10 mm, are cut and prepared for organ bath studies.
Preparation of compound stock solutions and dose responses. PGE1 (Cayman Chemical Co., Ann Arbor, Mich.) is stored at −20° C. in solid form until the day of use. Stock solutions are made by adding 1 ml of 70% DMSO to a vial containing 1 mg of PGE1. Compounds of the invention are dissolved in 1 ml of 70% DMSO, divided into 100 μl aliquots and stored at −20° C. until use. For dose responses in organ baths, stock solutions of PGE1 and compounds of the invention are diluted with 70% DMSO to make the highest concentration and then serially diluted with 2% DMSO for all other doses. In a typical dose response curve, the concentration of DMSO is checked to remain below […] in the 25 ml bath and to not exceed 0.5% at the highest dose.
Organ bath studies. Human or rabbit cavernosal tissue strips are mounted onto a fixed support with silk ties and attached to a tension transducer (model FT03; GrassTelefactor, Astro-Med, Inc. West Warwick, R.I.) with a rigid metal wire. After mounting, tissue strips are immersed in 25 ml baths of physiologic salt solution (PSS; 118.3 mM NaCl, 4.7 mM KCl, 0.6 mMMgSO4, 1.2 mMKH2PO4, 2.5 mMCaCl2, 25 mMNaHCO3, 0.026 mM CaNa2EDTA, 11.1 mM glucose). The solution is gassed with 95% […]/5% CO2 to attain a pH of 7.4 and the temperature is maintained at 37° C. All tissue strips are treated with 3 μM indomethacin to inhibit endogenous prostanoid production and minimize spontaneous contractile activity. The corpus cavernosum tissue is stretched incrementally and the optimal resting isometric tension for contraction is determined. After every 3-4 stretches (1 g tension/stretch), the tissue is contracted with 1 μM phenylephrine. When the amplitude of the phenylephrine-induced contraction is within 10% of the previous contraction, that tension is considered optimal for isometric contraction. All tissue strips are extensively washed with fresh PSS. Tissue strips are then contracted with 1 μM phenylephrine. After stable tone is achieved, tissue strips are exposed to increasing concentrations of PGE1 or compounds of the invention.
Data analysis. At the end of each experiment, all tissue strips are treated with 10 μM papaverine and 10 μM nitroprusside to induce maximal relaxation (100%). The total amount of relaxatory response over the range of drug concentrations tested is determined by the area under the plotted curves. EC50 values are calculated using Prism software (GraphPad, San Diego, Calif.). For final analysis of data, relaxation parameters are compared using ANOVA. If the ANOVA p-value is less than 0.05, paired post-test comparisons is carried out using the Tukey-Kramer test.

[5] = tested on: rabbits; experiment: In vivo intracavernosal injection, erectile response (ICP/SAP); conditions: rabbit
Description: DP agonists were solubilized in 40% propylene glycol and administered by intracavernosal injection to deliver the indicated dose in 0.1 ml total volume. Since penile intracavernosal pressure (ICP) is ultimately limited by the systemic arterial pressure (SAP), all erectile responses were normalized by calculating the ration of ICP/SAP.

[6] = after contraction with phenylephrine

O=C(O)CCCCCC[C@H]1CCC(=O)N1CCC(O)C1CCCCC1 (stereo in doubt) [Example 4, 7-{(2S)-1-[(3R)-3-cyclohexyl-3-hydroxypropyl]-5-oxopyrrolidin-2-yl}heptanoic acid]
Ki [1]: 47.2 nM | EC50 [2]: 1.38 nM | Ki [3]: > 10000 nM

O=C(O)CCCCCCC1C(=O)NC(=O)N1CCC(O)C1CCCCC1 (stereo not shown) [BW245C, reference compound]
EC50 [2]: 0.031 nM | EC50 [4, 6]: 59 nM

O=C(O)c1ccc(CCC[C@H]2CCC(=O)N2CC[C@@H](O)C2CCCCC2)cc1 [Example 1, 4-(3-(2S)-1-[(3R)-3-cyclohexyl-3-hydroxypropyl]-5-oxotetrahydro-1H-2-pyrrolylpropyl)benzoic acid]
Ki [1]: 2.4 nM | Ki [3]: > 10000 nM | EC50 ([4]; Homo sapiens, after contraction with phenylephrine): 29 nM | Relaxation of human penile cavernosal tissue strips (in words) [4, 6]: dose-dependent relaxation | Extent of relaxation (maximal effect) versus BW245C ([4]; human cavernosal tissue): greater | Systemic blood pressure ([5]; any dose): no overt changes | Arterial pressure ([5]; intracavernosal): remained constant | Duration of transient episodes of penile tumescence ([5]; intracavernosal): 1 to 3 min | ICP/SAP (peak response or AUC) compared to vehicle ([5]; intracavernosal): dose-dependant increases | Penile response at highest dose ([5]; intracavernosal, 5 μg, single animals): repeated and transient episodes of spontaneous penile tumescence; also recorded: penile resistance arteries were fully dilated | Penile tumescence after intracavernosal injection ([5]; intracavernosal, 40% propylene glycol): sustained periods of penile tumescence or transient episodes

O=C(O)c1ccc(CCC[C@H]2CCC(=O)N2CC[C@H](O)C2CCCCC2)cc1 [Example 2, 4-(3-(2S)-1-[(3S)-3-cyclohexyl-3-hydroxypropyl]-5-oxotetrahydro-1H-2-pyrrolylpropyl)benzoic acid]
Ki [1]: 10.5 nM | EC50 [2]: 0.71 nM | Ki [3]: > 10000 nM

O=C(O)CCCCCC[C@H]1CCC(=O)N1CC[C@@H](O)C1CCCCC1 [Example 3, 7-{(2S)-1-[(3R)-3-cyclohexyl-3-hydroxypropyl]-5-oxopyrrolidin-2-yl}heptanoic acid]
Ki [1]: 1.8 nM | EC50 [2]: 0.037 nM | Ki [3]: > 10000 nM

CCCCC[C@H](O)/C=C/[C@H]1C(=O)C[C@H](O)[C@@H]1C/C=C\CCCC(=O)O [PGD2]
Ki [1]: 4.1 nM | EC50 [2]: 0.3 nM | EC50 [4, 6]: 0.3 nM | Effect at concentrations higher than 0.3 μM ([4]; human cavernosal tissue): caused contraction | Concentration through which dose-dependent relaxation was seen ([4]; human cavernosal tissue, contraction at higher concentration): ≤ 0.3 µM

CCCCC[C@H](O)/C=C/[C@H]1[C@H](O)CC(=O)[C@@H]1CCCCCCC(=O)O [PGE1]
EC50 [4, 6]: 210 nM
